{"source": "paper PMC12517105", "about": "(Toxicology Reports, 2025)", "key": {"ALI-HBECs [1]": {"system": "ALI-HBECs", "design": "species or system human", "conditions": "for Fraction of parent metabolites that are M1 / Absorption into cells: optimization dataset", "description": "A dosimetry model was developed to contextualize how PAHs interact with ALI-HBECs during exposure (Fig. 1). The model describes the time course dosimetry of two PAHs: […] Model parameters for cell and media compartments were characterized based on measurements for the ALI-HBEC culture system described by […] Technologies (Table 2). […] [28], [67]. We initially modeled parent and metabolite transport among compartments as passive diffusion using ordinary differential equations. […] Consistent with these previous observations, we observed induction of CYP1A1 activity as measured by P450-GloTM (see Results). […] CYP1A1 activity was included as a coefficient of the rate of metabolism for PAH parent which could be triggered by an induction switch. The switch allows for metabolism induction to be turned on or off in future uses of the model. When turned off, the CYP term is set to 1 and the rate of metabolism behaves as described above. […] Parameters were optimized against the optimization UPLC dataset. Parent absorption and metabolism were optimized together against data for BAP in cells. Parent permeability and volatilization were optimized together against data for BAP in media. […] All model parameters and CYP1A1 rational function coefficients were optimized using a maximum log likelihood objective with the Nelder-Mead algorithm and starting values set by visual inspection. The model was built in R version 4.4.2 (R Foundation for Statistical Computing, Vienna, Austria) using the RMagnolia R package version 1.3.15 (https://www.magnoliasci.com/rmagnolia/). The Akaike Information Criterion (AIC) was used for selecting the best model fit for CYP1A1 activity, inclusion of metabolism induction, and inclusion of active efflux. The final model with metabolism induction and active efflux of the metabolite was validated by comparison to data collected in the validation UPLC dataset."}, "CYP1A1 [2]": {"system": "CYP1A1", "experiment": "RNA-sequencing, differential expression of CYP1A1", "format": "cell-based, human", "conditions": "24 h, BAP 0.076-3 µg/cm^2, vs vehicle control", "experimental": "(§1) Cells were collected from inserts and lysed with RLT lysis buffer with 1 % β-mercaptoethanol using the RNeasy Mini Kit (Qiagen, Hilden, Germany) and stored at −80 °C. RNA was isolated from cell lysate using the RNeasy Mini Kit per the manufacturer’s protocol and was quantified on a Synergy HTX (BioTek, Winooski, VT, USA) plate reader equipped with a Take3 module (BioTek, Winooski, VT, USA). […] For library construction, mRNA was poly-A selected and libraries were prepared as previously described by Dasgupta et al.. High quality reads with a sequencing length greater than 150 bp were annotated and mapped to the human reference genome GRCh38.p14 using HISAT2, count tables were generated with feature Counts, and differential expression was conducted using the DESeq2 R package version 1.46.0 compared to vehicle control, [64]. In vehicle exposed samples, the fragment per kilobase million (FPKM) was calculated for each gene, and genes with an FPKM > 1 were considered constitutively expressed, [102], [114]. Genes associated with xenobiotic metabolism and transport were identified by pathway enrichment analysis in MetaCore (GeneGo, Thomson Reuters, Carlsbad, CA) and by literature search."}, "[3]": {"system": "genes related to xenobiotic metabolism and transport in ALI-HBECs", "experiment": "RNA-sequencing, differentially expressed xenobiotic transport and metabolism genes", "format": "cell-based, human", "conditions": "24 h, by at least one BAP treatment vs vehicle control", "experimental": "as §1"}, "CYP1A1 [4]": {"system": "CYP1A1", "experiment": "CYP1A1 activity, P450-Glo CYP1A1 Assay in ALI-HBECs", "format": "cell-based, human", "conditions": "BAP 2.26 µg/cm^2, 0-48 h", "method": "CYP1A1 activity was measured in ALI-HBECs using the P450-Glo™ CYP1A1 Assay System (Promega, Madison, WI). The protocol was adapted to assess CYP1A1 activity in ALI-HBECs. Luciferin-CEE solution was diluted in DPBS, ALI-HBEC basal media was replaced with DPBS, and 50 µL of Luciferin-CEE solution was added to the apical surface. […] Luminescence was recorded on a Synergy HTX plate reader. Cell viability was measured using the CellTiter-Glo® (CTG) Luminescent Cell Viability Assay (Promega, Madison, WI) per manufacturer’s protocol, and luminescence was recorded on a Synergy HTX plate reader. Background luminescence was subtracted from all data, and CYP1A1 activity was normalized to cell viability for each sample."}, "ALI-HBECs [5]": {"system": "ALI-HBECs", "experiment": "Mass balance experiments: BAP and metabolites in cell, media and mucus fractions by UPLC", "format": "in vitro ADME, human", "experimental": "(§2) Normal HBECs (Lonza, Basel, Switzerland) were expanded to passage 4 in PneumaCult™-Ex Plus medium and transferred to 12-well plates with 12 mm transwell inserts ([…] Technologies, Vancouver, BC, Canada) and 30,000 cells per insert or 24-well plates with 6.5 mm transwell inserts ([…] Technologies, Vancouver, BC, Canada) and 9000 cells per insert for differentiation at the ALI using PneumaCult™-ALI medium. Cells were cultured at the ALI for 25 days at 37°C and 5 % CO2 with media changes every 2–3 days and mucus washes using DPBS on the apical surface once a week starting at 14 days post air-lifting to maintain healthy ALI cultures. Just before exposure, media was changed and ALI-HBECs were apically washed with DPBS or ALI media to remove mucus.\n(§3) Glass pipettes were used for all collection and extraction steps to reduce loss of compound from binding to plastic. ALI media was used instead of DPBS for all rinse and collection steps due to interference with the fluorescence detector. At each timepoint, basal media was collected and the bottom of the insert rinsed, the apical surface was washed and rinses collected, and cells were collected by scraping with a stainless-steel spatula and rinsed from the insert. All collected fractions were flash frozen in liquid nitrogen and stored at −80°C.\n(§4) For Phase 2 metabolite analysis, samples were incubated with β-glucuronidase to deconjugate glucuronide and […] metabolites following methods described by Combie et al.. For cell fractions, 0.1 mm glass beads were added to the sample and placed in a Next Advance Bullet Blender™ 24 (Troy, NY) for 3 min to fully lyse cells and increase recovery. All cell, media, and mucus samples were transferred to amber glass vials and adjusted to pH 5 with acetic acid. β-glucuronidase reconstituted in water was added to samples at 5000 U/mL, and samples were incubated at 65°C for 3 h. Samples were allowed to cool to room temperature before continuing with extractions.\n(§5) All samples were spiked with DBC as an internal standard for a final concentration of 2.5 μM to correct compound recovery for extraction efficiency. Cell fractions not previously incubated with β-glucuronidase were lysed by blending with 0.1 mm glass beads. All cell, media, and mucus samples were transferred to glass vials, vortexed and sonicated in ethyl acetate, and incubated for 2 h at −20°C to precipitate any protein. Samples were centrifuged at 2000 rcf for 10 min, and the ethyl acetate supernatant was collected. This was repeated for a total of three rounds. Ethyl acetate was evaporated to dryness under nitrogen gas, samples were reconstituted in 100 μL ACN, and samples were stored at −80°C.\n(§6) Glucuronide metabolite formation was estimated as the difference between samples incubated with and without β-glucuronidase at similar timepoints."}, "[6]": {"experiment": "Mass balance experiments: BAP and metabolites in cell, media and mucus fractions by UPLC", "format": "in vitro ADME, human", "conditions": "human", "experimental": "as §2, §3, §4, §5, §6"}, "[7]": {"conditions": "M1 parameter, Active Efflux model"}, "[8]": {"conditions": "M1 parameter, Active Efflux model, set as parent value"}, "[9]": {"conditions": "M1 parameter, Passive Diffusion model"}, "[10]": {"conditions": "M1 parameter, Passive Diffusion model, set as parent value"}, "[11]": {"conditions": "parent parameter, No Metabolism Induction"}, "[12]": {"conditions": "parent parameter, With Metabolism Induction"}}, "note": "Read-outs that look alike come from different tables or passages of the source."}
{"smiles": "OC1C=Cc2c(cc3ccc4cccc5ccc2c3c45)C1O", "note": "(centres unmarked) [7,8-dihydrodiol, BAP-7,8-dihydrodiol]", "values": [{"measurement": "Active efflux into media", "setting": "ALI-HBECs [1]; [7]", "result": 0.000869, "unit": "L/h"}, {"measurement": "Active efflux into mucus", "setting": "ALI-HBECs [1]; [7]", "result": 0.000445, "unit": "L/h"}, {"measurement": "Clearance by metabolism", "setting": "ALI-HBECs [1]; [7]", "result": 0.79, "unit": "L/hr/kg^3/4"}, {"measurement": "Fraction of parent metabolites that are M1", "setting": "ALI-HBECs [1]; [7]", "result": 0.099}, {"measurement": "Volatilization from media", "setting": "ALI-HBECs [1]; [8]", "result": 0.00185, "unit": "h⁻¹"}, {"measurement": "Volatilization from mucus", "setting": "ALI-HBECs [1]; [8]", "result": 0.00185, "unit": "h⁻¹"}, {"measurement": "Clearance by metabolism", "setting": "ALI-HBECs [1]; [9]", "result": 3.93, "unit": "L/hr/kg^3/4"}, {"measurement": "Permeability of cells", "setting": "ALI-HBECs [1]; [9]", "result": 16.9, "unit": "×10⁻⁶ cm/s"}, {"measurement": "Fraction of parent metabolites that are M1", "setting": "ALI-HBECs [1]; [9]", "result": 0.022}, {"measurement": "Volatilization from media", "setting": "ALI-HBECs [1]; [10]", "result": 0.00185, "unit": "h⁻¹"}, {"measurement": "Volatilization from mucus", "setting": "ALI-HBECs [1]; [10]", "result": 0.00185, "unit": "h⁻¹"}, {"measurement": "Fraction of M1 formed from parent metabolites", "setting": "ALI-HBECs [1]; model temporarily optimized to the validation set (BAP 4.67 µg/cm^2)", "result": 0.05}]}
{"smiles": "c1ccc2c(c1)cc1ccc3cccc4ccc2c1c34", "note": "[BAP, Benzo[a]pyrene]", "values": [{"measurement": "CYP1A1 average induction (mRNA)", "setting": "CYP1A1 [2]", "result": 12.6, "unit": "fold"}, {"measurement": "number of genes related to xenobiotic metabolism significantly differentially expressed", "setting": "[3]", "result": 38, "unit": "genes"}, {"measurement": "number of genes related to xenobiotic transport significantly differentially expressed", "setting": "[3]", "result": 8, "unit": "genes"}, {"measurement": "time of maximum CYP1A1 activity", "setting": "CYP1A1 [4]", "result": 8, "unit": "h"}, {"measurement": "Volatilization from media", "setting": "ALI-HBECs [1]; [11]", "result": 0.00436, "unit": "h⁻¹"}, {"measurement": "Absorption into cells", "setting": "ALI-HBECs [1]; [11]", "result": 0.47, "unit": "h⁻¹"}, {"measurement": "Volatilization from media", "setting": "ALI-HBECs [1]; [12]", "result": 0.00185, "unit": "h⁻¹"}, {"measurement": "Absorption into cells", "setting": "ALI-HBECs [1]; [12]", "result": 0.24, "unit": "h⁻¹"}, {"measurement": "time by which BAP was cleared from cells", "setting": "ALI-HBECs [5]; after exposure", "result": "≤ 48", "unit": "h"}, {"measurement": "time before BAP started releasing into the media fraction", "setting": "ALI-HBECs [5]; optimization dataset", "result": "> 4", "unit": "h"}, {"measurement": "average BAP recovery at 0 h (amount)", "setting": "ALI-HBECs [5]; optimization dataset, BAP 2.26 µg/cm^2", "result": 8.6, "unit": "nmol"}, {"measurement": "average BAP recovery at 0 h (amount)", "setting": "ALI-HBECs [5]; validation dataset, BAP 4.67 µg/cm^2", "result": 16.8, "unit": "nmol"}, {"measurement": "recovery at 0 h, 2.26 µg/cm^2", "setting": "[6]", "result": 85.2, "unit": "%"}, {"measurement": "recovery at 0 h, 4.67 µg/cm^2", "setting": "[6]", "result": 87.5, "unit": "%"}]}
